Test results: patent US8138219B2, “Tryptamine sulfonamides as 5-HT6 antagonists” (Merck Sharp & Dohme Corp., priority 2007, dated 2012)
Where two headings read alike, the source gives them in different places.

What was measured:
[1] = molecular target: T1, Mouse 5-HT6 (Mus musculus, UniProt Q9R1C8); test: 5-HT6 receptor binding assay ([3H]5-HT displacement, SPA), mouse receptor
T1 construct: expressed in transfected cells
Protocol: (§1) 5-HT6 Receptor Binding Assay
(§2) Affinity (IC50) of a compound for cloned human, rat, or mouse 5-HT6 receptor was measured by its ability to displace [^3H]5-HT using cell membranes prepared from cultured cells and scintillation proximity assay (SPA) beads that bind to cell membranes (Catalog No. RPNQ0001; GE Healthcare Life Sciences, Piscataway, N.J.). Assays were carried out in 200 μl binding buffer (50 mM Tris-HCl, pH 7.4, 5 mM MgCl2, 0.5 mM EDTA, 10 μM pargyline and 0.1% ascorbic acid) in 96-well plates. Cell membranes were re-suspended in binding buffer to final concentration of up to 0.2 mg protein/ml and mixed with reconstituted SPA beads to a final concentration of 0.25 mg/ml. To each well, […] of above mixture, 50 of cold compound (to 10^−10 to 10^−5 M final concentration) and 50 μl of [^3H]5-HT radioligand (specific activity, 100 Ci/mmol, GE Healthcare Life Sciences; final concentration, 5 nM) were added. Following 1 h incubation at room temperature, the radioactivity bound to the cell membranes was measured on a scintillation counter.

[2] = molecular target: T2, Human 5-HT6 (Homo sapiens, UniProt P50406); test: 5-HT6 receptor binding assay ([3H]5-HT displacement, SPA), human receptor
T2 construct: expressed in transfected cells
T2 sequence (P50406 whole entry): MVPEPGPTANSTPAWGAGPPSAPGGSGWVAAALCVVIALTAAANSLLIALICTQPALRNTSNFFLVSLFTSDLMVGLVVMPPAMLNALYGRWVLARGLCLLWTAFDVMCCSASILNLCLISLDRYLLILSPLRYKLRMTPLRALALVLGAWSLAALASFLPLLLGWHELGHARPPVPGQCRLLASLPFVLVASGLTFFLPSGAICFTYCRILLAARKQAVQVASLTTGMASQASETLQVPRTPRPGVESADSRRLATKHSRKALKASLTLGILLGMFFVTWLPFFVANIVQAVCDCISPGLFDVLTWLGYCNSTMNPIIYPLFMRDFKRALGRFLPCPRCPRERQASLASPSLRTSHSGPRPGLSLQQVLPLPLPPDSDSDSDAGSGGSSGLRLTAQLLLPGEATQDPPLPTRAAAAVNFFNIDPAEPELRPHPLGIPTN
Protocol: as §1, §2

[3] = system: 5-HT6 receptor expressed in CHO cells; test: 5-HT6 receptor functional activity assay (cellular cAMP levels, CHO cells); assay type: cell-based, human, rat, or mouse; settings: concentration up to 10 micromolar; cAMP accumulation; species not specified
Protocol: 5-HT6 Receptor Functional Activity Assay.
The functional activation of human, rat, or mouse 5-HT6 receptor expressed in CHO cells was determined by measuring cellular cAMP levels following the exposure of the cells to a compound using the SPA cAMP Screening System (Catalog No. RPA556, GE Healthcare) in 96-well OptiPlates (Catalog No. 6005190, PerkinElmer, Boston, Mass.). Cells expressing recombinant receptors were harvested and then re-suspended at approximately 2.0×10^6 cells/ml in assay medium containing Earle's Balanced Salt Solution (EBSS, pH 7.4) supplemented with 25 mM Hepes, 5 mM MgCl2 and 0.05% BSA. Cells (50 μl, ˜10^5 cells) were transferred to wells, to give a final volume of 100 μl containing various concentrations of compounds. The plate was incubated at 37° C. for 30 min and the reaction was terminated by boiling for 3 min. The accumulation of cAMP in 15 μl lysate was measured according to manufacture's instructions.

[4] = cloned mouse 5-HT6 receptor, cell membranes, [3H]5-HT 5 nM, read-out: Mouse 5-HT6 binding IC50
[5] = cloned human 5-HT6 receptor, cell membranes, [3H]5-HT 5 nM, read-out: Human 5-HT6 binding IC50

T1 sequence (Q9R1C8 whole entry): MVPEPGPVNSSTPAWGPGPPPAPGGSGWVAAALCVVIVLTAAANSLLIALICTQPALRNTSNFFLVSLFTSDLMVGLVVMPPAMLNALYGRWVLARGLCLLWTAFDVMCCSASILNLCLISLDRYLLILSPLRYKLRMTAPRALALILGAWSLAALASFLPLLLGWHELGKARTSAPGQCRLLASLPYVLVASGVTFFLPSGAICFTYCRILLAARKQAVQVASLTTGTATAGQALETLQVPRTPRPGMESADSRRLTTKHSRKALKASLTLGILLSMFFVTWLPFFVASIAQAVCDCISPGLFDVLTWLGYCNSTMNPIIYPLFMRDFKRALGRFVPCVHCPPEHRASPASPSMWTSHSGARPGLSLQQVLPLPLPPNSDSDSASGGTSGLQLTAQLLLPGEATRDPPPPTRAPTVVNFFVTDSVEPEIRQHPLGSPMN

SMILES | IC50 [1, 4] | IC50 [2, 5] | functional activation of 5-HT6 receptor (detectable activity) [3] | IC50 [1] | IC50 [2]
O=S(=O)(c1cc(Cl)cc(Cl)c1)n1cc(CCNCc2cccc(OCC(F)(F)C(F)F)c2)c2ccc(F)cc21 [Example 5] | 148 nM | 2.88 nM |  |  | 
O=S(=O)(c1ccc(Cl)cc1)n1cc(CCNCc2cccc(OCC(F)(F)C(F)F)c2)c2ccc(F)cc21 [Example 7] | 7.27 nM | 3.4 nM |  |  | 
O=S(=O)(c1cccc(C(F)(F)F)c1)n1cc(CCNCc2cccc(OCC(F)(F)C(F)F)c2)c2ccc(F)cc21 [Example 10] | 60 nM | 0.626 nM |  |  | 
Cl.O=S(=O)(c1ccccc1)n1cc(CCNCc2cccc(OCC(F)(F)C(F)F)c2)c2ccc(F)cc21 [Example 1] | 2 nM | 0.2 nM | did not show detectable activity |  | 
O=S(=O)(c1ccc(F)cc1)n1cc(CCNCc2cccc(OCC(F)(F)C(F)F)c2)c2ccc(F)cc21 [Example 6] |  |  |  | 21.6 nM | 2.88 nM
CS(=O)(=O)n1cc(CCNCc2cccc(OCC(F)(F)C(F)F)c2)c2ccc(F)cc21 [Example 12] |  |  |  | 9.51 nM | 1.61 nM
COc1cccc(S(=O)(=O)n2cc(CCNCc3cccc(OCC(F)(F)C(F)F)c3)c3ccc(F)cc32)c1 [Example 3] | 170 nM | 0.593 nM |  |  | 
O=S(=O)(c1ccc(F)c(Cl)c1)n1cc(CCNCc2cccc(OCC(F)(F)C(F)F)c2)c2ccc(F)cc21 [Example 9] | 127 nM | 8.85 nM |  |  | 
CC(C)S(=O)(=O)n1cc(CCNCc2cccc(OCC(F)(F)C(F)F)c2)c2ccc(F)cc21 [Example 14] | 57.1 nM | 20 nM |  |  | 
COc1ccc(S(=O)(=O)n2cc(CCNCc3cccc(OCC(F)(F)C(F)F)c3)c3ccc(F)cc32)cc1 [Example 15] | 187 nM | 10.2 nM |  |  | 
O=S(=O)(c1cccc(Cl)c1)n1cc(CCNCc2cccc(OCC(F)(F)C(F)F)c2)c2ccc(F)cc21 [Example 4] | 60.2 nM | 0.805 nM |  |  | 
O=S(=O)(c1ccc(OC(F)(F)F)cc1)n1cc(CCNCc2cccc(OCC(F)(F)C(F)F)c2)c2ccc(F)cc21 [Example 2] |  |  |  | 211 nM | 46.4 nM
CCS(=O)(=O)n1cc(CCNCc2cccc(OCC(F)(F)C(F)F)c2)c2ccc(F)cc21 [Example 13] |  |  |  | 11.7 nM | 2.62 nM
O=S(=O)(c1cccc(F)c1)n1cc(CCNCc2cccc(OCC(F)(F)C(F)F)c2)c2ccc(F)cc21 [Example 11] | 17.6 nM | 0.371 nM |  |  | 
O=S(=O)(c1ccc(Br)cc1)n1cc(CCNCc2cccc(OCC(F)(F)C(F)F)c2)c2ccc(F)cc21 [Example 8] | 15.4 nM | 2.05 nM |  |  | 
